{"source": "ChEMBL document CHEMBL1201862", "about": "“PubChem BioAssay data set” (2004)", "key": {"Cytochrome P450 1A2": {"biological_target": "T1, Cytochrome P450 1A2 (Homo sapiens, UniProt P05177)", "T1 sequence (P05177 whole entry)": "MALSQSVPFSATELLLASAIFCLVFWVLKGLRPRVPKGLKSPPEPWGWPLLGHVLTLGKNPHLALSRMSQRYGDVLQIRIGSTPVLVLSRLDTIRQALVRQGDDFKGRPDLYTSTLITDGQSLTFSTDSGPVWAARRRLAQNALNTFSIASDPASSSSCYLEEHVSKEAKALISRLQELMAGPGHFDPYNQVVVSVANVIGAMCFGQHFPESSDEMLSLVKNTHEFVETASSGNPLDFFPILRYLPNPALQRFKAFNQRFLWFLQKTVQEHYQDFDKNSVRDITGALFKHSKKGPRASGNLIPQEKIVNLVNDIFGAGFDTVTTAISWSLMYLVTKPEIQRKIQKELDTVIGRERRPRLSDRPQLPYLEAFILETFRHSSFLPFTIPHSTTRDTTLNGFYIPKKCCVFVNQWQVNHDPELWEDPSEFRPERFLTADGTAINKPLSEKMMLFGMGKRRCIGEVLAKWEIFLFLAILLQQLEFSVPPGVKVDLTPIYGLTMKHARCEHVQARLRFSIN"}, "Cytochrome P450 2C19": {"biological_target": "Cytochrome P450 2C19 (Homo sapiens, UniProt P33261)", "sequence (P33261 whole entry)": "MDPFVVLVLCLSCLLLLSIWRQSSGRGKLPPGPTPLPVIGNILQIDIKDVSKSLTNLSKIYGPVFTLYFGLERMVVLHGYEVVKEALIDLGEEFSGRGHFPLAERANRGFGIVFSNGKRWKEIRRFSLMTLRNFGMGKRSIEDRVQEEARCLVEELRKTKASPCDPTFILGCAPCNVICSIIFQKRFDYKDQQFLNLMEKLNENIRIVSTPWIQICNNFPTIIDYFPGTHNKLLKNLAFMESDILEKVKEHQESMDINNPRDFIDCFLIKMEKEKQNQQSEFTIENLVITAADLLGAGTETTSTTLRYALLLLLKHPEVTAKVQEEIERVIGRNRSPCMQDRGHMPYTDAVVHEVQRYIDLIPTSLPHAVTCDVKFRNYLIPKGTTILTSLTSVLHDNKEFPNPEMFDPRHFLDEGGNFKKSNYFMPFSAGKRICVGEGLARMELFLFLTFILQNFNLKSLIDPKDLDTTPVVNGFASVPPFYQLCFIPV", "assay": "Cytochrome panel assay with activity outcomes. Panel member name: p450-cyp2c19 Compounds with AC50 equal or less than 10 uM are considered active", "assay_type": "functional"}, "Cytochrome P450 3A4": {"biological_target": "Cytochrome P450 3A4 (Homo sapiens, UniProt P08684)", "sequence (P08684 whole entry)": "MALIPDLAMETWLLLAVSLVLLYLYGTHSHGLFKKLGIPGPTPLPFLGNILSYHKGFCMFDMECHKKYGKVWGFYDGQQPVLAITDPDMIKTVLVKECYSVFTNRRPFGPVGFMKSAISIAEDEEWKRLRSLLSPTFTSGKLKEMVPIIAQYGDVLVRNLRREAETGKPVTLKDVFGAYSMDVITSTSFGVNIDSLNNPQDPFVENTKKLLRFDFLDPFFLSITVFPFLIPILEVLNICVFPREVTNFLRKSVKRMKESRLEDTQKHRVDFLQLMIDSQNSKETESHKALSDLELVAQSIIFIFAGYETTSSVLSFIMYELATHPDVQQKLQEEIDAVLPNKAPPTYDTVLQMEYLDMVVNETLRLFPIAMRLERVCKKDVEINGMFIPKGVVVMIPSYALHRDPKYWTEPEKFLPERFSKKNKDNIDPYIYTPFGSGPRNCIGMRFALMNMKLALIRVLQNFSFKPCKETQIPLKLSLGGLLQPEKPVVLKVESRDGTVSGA"}, "Cytochrome P450 2D6": {"biological_target": "Cytochrome P450 2D6 (Homo sapiens, UniProt P10635)", "sequence (P10635 whole entry)": "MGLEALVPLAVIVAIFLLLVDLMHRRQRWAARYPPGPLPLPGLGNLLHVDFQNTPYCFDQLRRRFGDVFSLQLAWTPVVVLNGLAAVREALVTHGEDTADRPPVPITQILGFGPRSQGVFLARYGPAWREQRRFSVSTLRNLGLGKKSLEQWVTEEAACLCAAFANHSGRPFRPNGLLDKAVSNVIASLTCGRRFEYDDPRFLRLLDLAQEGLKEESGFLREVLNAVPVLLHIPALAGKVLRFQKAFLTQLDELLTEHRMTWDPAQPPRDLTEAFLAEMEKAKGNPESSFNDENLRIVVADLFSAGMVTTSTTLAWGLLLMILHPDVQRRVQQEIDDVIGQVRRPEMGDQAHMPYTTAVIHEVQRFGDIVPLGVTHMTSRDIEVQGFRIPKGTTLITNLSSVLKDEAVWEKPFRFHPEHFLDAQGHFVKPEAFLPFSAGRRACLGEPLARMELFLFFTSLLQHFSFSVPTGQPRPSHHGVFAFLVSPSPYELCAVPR"}, "[1]": {"assay": "Luminescence Cell-Based Dose Response HTS to Identify Inhibitors of 5'UTR Stem-Loop Driven Prion Protein mRNA Translation in H4 Neuroglioblastoma Cells. [Related pubchem assays: 1827 (Project Summary), 1813 (Primary HTS)]", "assay_type": "functional"}, "[2]": {"assay": "inhibitors of SNCA 5'UTR-driven reporter translation, confirmation, H4 neuroglioma cells, luminescence (AID 1988)", "assay_type": "functional, cell-based"}, "cells": {"assay": "cells", "assay_type": "functional"}}, "note": "“And” between values parts separate entries of the source, which are not always exact repeats. Identical values can stand only once. The source made the active and inactive calls.", "data": [{"smiles": "CCc1cc2c(=O)c(-c3cnn(-c4ccccc4)c3)coc2c(CN2CCOCC2)c1O", "values": [{"measurement": "AC50", "setting": "Cytochrome P450 1A2", "result": "15.8 µM (inconclusive)"}]}, {"smiles": "COc1cc(-c2nnc(SCC(=O)Nc3ccc4c(c3)OCCO4)o2)cc(OC)c1OC", "values": [{"measurement": "AC50", "setting": "Cytochrome P450 1A2", "result": "15.8 µM (inconclusive)"}]}, {"smiles": "C[C@H](CC(C#N)(c1ccccc1)c1ccccc1)N1CCCCC1", "values": [{"measurement": "AC50", "setting": "Cytochrome P450 2C19; read-out: AC50", "result": "1.58 µM (inconclusive)"}, {"measurement": "AC50", "setting": "Cytochrome P450 3A4", "result": "3.98 µM (inconclusive)"}]}, {"smiles": "N[C@@](C(=O)O)(c1ccc(P(=O)(O)O)cc1)C1CC1", "values": [{"measurement": "AC50", "setting": "Cytochrome P450 2C19; read-out: AC50", "result": "25.1 µM (inconclusive)"}, {"measurement": "AC50", "setting": "Cytochrome P450 1A2", "result": "50.1 µM (inconclusive)"}]}, {"smiles": "CCN(CC)CCOC(=O)c1ccc(N)cc1", "note": "[PROCAINE]", "values": [{"measurement": "AC50", "setting": "Cytochrome P450 2D6", "result": "10 µM (inconclusive) and 39.8 µM (inconclusive)"}]}, {"smiles": "N#Cc1cc(-c2ccccc2)cnc1Sc1ccc(Cl)cc1", "values": [{"measurement": "AC50", "setting": "Cytochrome P450 2D6", "result": "10 µM (inconclusive)"}, {"measurement": "AC50", "setting": "Cytochrome P450 3A4", "result": "12.6 µM (inconclusive)"}]}, {"smiles": "COc1ccccc1CCn1c(=O)c(CCc2ccccc2)nc2cncnc21", "values": [{"measurement": "AC50", "setting": "Cytochrome P450 2D6", "result": "25.1 µM (inconclusive)"}]}, {"smiles": "O=C(Cc1ccc(Br)cc1)Nc1ccccc1Sc1ccccc1", "values": [{"measurement": "AC50", "setting": "Cytochrome P450 2D6", "result": "11.2 µM (inconclusive)"}]}, {"smiles": "CNC(=O)C(=O)NCCc1ccc(Cl)cc1", "values": [{"measurement": "AC50", "setting": "Cytochrome P450 2D6", "result": "28.2 µM (inconclusive)"}]}, {"smiles": "Cn1c(=O)c(-c2ccccc2)nc2cnc(Nc3ccccc3)nc21", "values": [{"measurement": "AC50", "setting": "Cytochrome P450 2C19; read-out: AC50", "result": "0.0398 µM (inconclusive)"}]}, {"smiles": "CCNCCCNCCCNCCCNCC", "note": "[BIS(ETHYL)NORSPERMINE]", "values": [{"measurement": "AC50", "setting": "Cytochrome P450 2C19", "result": "inconclusive"}]}, {"smiles": "COc1cccc(NC(=S)N(CCc2nc3cc(C)c(C)cc3[nH]2)Cc2cccnc2)c1", "values": [{"measurement": "AC50", "setting": "Cytochrome P450 2D6", "result": "0.126 µM (inconclusive)"}]}, {"smiles": "CN(C)c1ncnc2ccc(-c3ccoc3)cc12", "values": [{"measurement": "AC50", "setting": "Cytochrome P450 2C19; read-out: AC50", "result": "39.8 µM (inconclusive)"}, {"measurement": "AC50", "setting": "Cytochrome P450 3A4", "result": "12.6 µM (inconclusive)"}]}, {"smiles": "Cn1cccc1CNCCc1ccccc1", "values": [{"measurement": "AC50", "setting": "Cytochrome P450 2C19; read-out: AC50", "result": "14.1 µM (inconclusive)"}, {"measurement": "AC50", "setting": "Cytochrome P450 3A4", "result": "31.6 µM (inconclusive)"}]}, {"smiles": "Cc1ccccc1-c1nc(NC2CC2)c2ccccc2n1", "values": [{"measurement": "AC50", "setting": "Cytochrome P450 2D6", "result": "39.8 µM (inconclusive)"}]}, {"smiles": "CCCOc1ccccc1C1CC(=O)NC(C)=C1C(=O)OCC(C)C", "note": "(configuration not stated)", "values": [{"measurement": "AC50", "setting": "Cytochrome P450 1A2", "result": "11.2 µM (inconclusive)"}]}, {"smiles": "CC(=O)c1ccc(N=Nc2ccc(N(C)C)cc2)cc1", "values": [{"measurement": "EC50", "setting": "[1]", "result": "4.44 µM (active)"}, {"measurement": "EC50", "setting": "[2]", "result": "4.11 µM (inconclusive)"}]}, {"smiles": "CNc1ncncc1-c1ccc(C(=O)N(C)C)cc1", "values": [{"measurement": "AC50", "setting": "Cytochrome P450 1A2", "result": "15.8 µM (inconclusive)"}]}, {"smiles": "CN(C)c1ncc2ncc(=O)n(C)c2n1", "values": [{"measurement": "AC50", "setting": "Cytochrome P450 2D6", "result": "20 µM (inconclusive)"}]}, {"smiles": "CN1CCN(c2ncc3ncc(=O)n(Cc4ccc(F)cc4)c3n2)CC1", "values": [{"measurement": "AC50", "setting": "Cytochrome P450 1A2", "result": "25.1 µM (inconclusive)"}, {"measurement": "AC50", "setting": "Cytochrome P450 3A4", "result": "15.8 µM (inconclusive)"}]}, {"smiles": "O=c1c(-c2ccc(Cl)cc2)nc2cnc(N3CCOCC3)nc2n1C1CC1", "values": [{"measurement": "AC50", "setting": "Cytochrome P450 1A2", "result": "1.26 µM (inconclusive)"}]}, {"smiles": "COc1ccc(S(=O)(=O)N2CC3C4C=CC(C4)C3C2)cc1", "note": "(configuration not stated)", "values": [{"measurement": "AC50", "setting": "Cytochrome P450 2D6", "result": "15.8 µM (inconclusive)"}]}, {"smiles": "COc1ccc(/N=C/c2ccc(CNS(=O)(=O)c3ccc(Cl)cc3)o2)cc1", "values": [{"measurement": "AC50", "setting": "Cytochrome P450 2C19; read-out: AC50", "result": "11.2 µM (inconclusive)"}, {"measurement": "AC50", "setting": "Cytochrome P450 1A2", "result": "25.1 µM (inconclusive)"}, {"measurement": "AC50", "setting": "Cytochrome P450 3A4", "result": "31.6 µM (inconclusive)"}]}, {"smiles": "Nc1nc(Br)c2c(F)cccc2c1-c1ccc(F)cc1", "values": [{"measurement": "AC50", "setting": "Cytochrome P450 2C19; read-out: AC50", "result": "1.12 µM (inconclusive)"}]}, {"smiles": "Cc1cccc(Cn2ccc(NC(=O)c3ccc4c(c3)OCO4)n2)c1", "values": [{"measurement": "IC50", "setting": "cells", "result": "2.33 µM (active)"}]}, {"smiles": "COc1ccc2oc(=O)c(/C(C)=N/NC(=O)c3ccncc3)cc2c1", "values": [{"measurement": "IC50", "setting": "cells", "result": "1.31 µM (active)"}]}, {"smiles": "CN(C)C(=O)c1ccc(-c2nccc(-n3ccnc3)n2)cc1", "values": [{"measurement": "AC50", "setting": "Cytochrome P450 2C19; read-out: AC50", "result": "39.8 µM (inconclusive)"}, {"measurement": "AC50", "setting": "Cytochrome P450 2D6", "result": "39.8 µM (inconclusive)"}, {"measurement": "AC50", "setting": "Cytochrome P450 3A4", "result": "3.16 µM (inconclusive)"}]}, {"smiles": "CC(C)(C(=O)c1cccnc1)c1cccnc1", "note": "[METYRAPONE]", "values": [{"measurement": "AC50", "setting": "Cytochrome P450 1A2", "result": "12.6 µM (inconclusive)"}]}, {"smiles": "Cc1cc(C)nc(SCC(=O)Nc2ccccc2[N+](=O)[O-])n1", "values": [{"measurement": "AC50", "setting": "Cytochrome P450 1A2", "result": "17.8 µM (inconclusive)"}]}, {"smiles": "CC1CCN(C(=O)c2ccc(-c3ccccc3Cl)o2)CC1", "values": [{"measurement": "IC50", "setting": "cells", "result": "33.8 µM (active)"}]}, {"smiles": "COc1ccc(-n2c(=O)c(-c3cccc(Cl)c3)nc3cncnc32)cc1", "values": [{"measurement": "AC50", "setting": "Cytochrome P450 2C19; read-out: AC50", "result": "39.8 µM (inconclusive)"}]}, {"smiles": "Cc1c(/C=N/CCOCc2ccccc2)cnn1C", "values": [{"measurement": "AC50", "setting": "Cytochrome P450 2C19; read-out: AC50", "result": "22.4 µM (inconclusive)"}, {"measurement": "AC50", "setting": "Cytochrome P450 2D6", "result": "25.1 µM (inconclusive)"}]}, {"smiles": "CC1CCCC(NC(=O)c2nnc(O)c3ccccc23)C1C", "note": "(configuration not stated)", "values": [{"measurement": "AC50", "setting": "Cytochrome P450 2C19; read-out: AC50", "result": "20 µM (inconclusive)"}]}, {"smiles": "COc1cc2nc3c(c([Si](C)(C)C(C)(C)C)c2cc1OC)Cn1c-3cccc1=O", "values": [{"measurement": "AC50", "setting": "Cytochrome P450 2C19; read-out: AC50", "result": "39.8 µM (inconclusive)"}]}, {"smiles": "CCCOc1ccc(N2CC(C(=O)Nc3ccccc3F)CC2=O)cc1", "note": "(configuration not stated)", "values": [{"measurement": "IC50", "setting": "cells", "result": "32.1 µM (active)"}]}]}
